Test results: patent publication US8722849B2, “Polypeptides” (Novo Nordisk A/S, priority 2011, dated 2014)
Converted amounts (≈) assume the structure as drawn. Read-outs that look alike come from different tables or passages of the source. Starred links: 1 amine or outer side, 2 acyl side, 3 side chain; linkers in the order of their positions; H or OH if unused. Positions of bridges follow the written chain, without caps; N, C: chain ends. Residues, ends and D or L forms follow the SMILES beside them. *: point of attachment. C20 diacid = O=C(O)CCCCCCCCCCCCCCCCCCC(=O)*; C18 diacid = O=C(O)CCCCCCCCCCCCCCCCC(=O)*; γGlu = O=C(O)[C@H](CCC(=O)[*:2])N[*:1]

What was measured:
[1] = Assay (IV) determination of solubility; assay type: physicochemical
Method in brief: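 Solubility is measured across pH 3.0–8.0 by mixing a ~500 nmol/ml aqueous polypeptide stock 1:1 with 100 mM glycylglycine or bistrispropane buffers. Samples stand 18 hours at room temperature, then are centrifuged and the soluble concentration is determined by HPLC.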

[2] = Assay (III) ThT fibrillation assay for physical stability; assay type: physicochemical; settings: ThT fibrillation assay
Method in brief: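 Freshly prepared formulations, pH-adjusted, with 1 μM ThT; four or eight replicates incubated at 37 °C under 960 rpm orbital shaking. Fluorescence (ex 444/em 485 nm) read every 20 min; […]. Peptide concentration measured by RP-HPLC before and after the run.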

[3] = biological target: T1, human amylin receptor (amylin 3(a) receptor: human calcitonin receptor + RAMP-3) (Homo sapiens, UniProt O60896+P30988); test: Assay (II)a functional CRE-luciferase assay, human amylin receptor; assay type: cell-based; settings: Table 2; BHK amylin 3(a)-receptor/CRE-luc cells
T1 construct: expressed in transfected cells; host or cells: BHK570
T1 sequence (P30988 25-474): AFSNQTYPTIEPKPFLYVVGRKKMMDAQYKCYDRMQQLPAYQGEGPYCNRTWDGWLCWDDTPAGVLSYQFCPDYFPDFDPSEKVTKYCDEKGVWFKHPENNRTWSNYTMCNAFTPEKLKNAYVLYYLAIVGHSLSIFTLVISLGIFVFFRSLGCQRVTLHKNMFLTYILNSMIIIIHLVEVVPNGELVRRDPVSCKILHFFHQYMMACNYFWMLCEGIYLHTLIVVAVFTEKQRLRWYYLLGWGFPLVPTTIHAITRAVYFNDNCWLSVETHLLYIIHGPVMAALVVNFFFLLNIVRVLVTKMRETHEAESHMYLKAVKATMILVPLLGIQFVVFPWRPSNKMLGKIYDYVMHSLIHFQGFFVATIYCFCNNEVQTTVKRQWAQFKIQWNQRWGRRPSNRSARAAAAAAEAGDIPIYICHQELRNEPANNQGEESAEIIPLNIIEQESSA
T1 sequence (O60896 24-148 partner): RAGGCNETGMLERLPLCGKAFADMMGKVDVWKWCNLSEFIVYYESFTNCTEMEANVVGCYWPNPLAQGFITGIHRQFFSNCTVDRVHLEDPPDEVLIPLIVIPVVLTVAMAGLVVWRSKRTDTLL

[4] = biological target: T2, human calcitonin receptor (Homo sapiens, UniProt P30988); test: Assay (II)a functional CRE-luciferase assay, human calcitonin receptor; assay type: cell-based; settings: Table 7; human calcitonin (CTa) receptor
T2 construct: expressed in transfected cells; host or cells: BHK570
T2 sequence (P30988 25-474): T1 sequence (P30988 25-474)

[5] = bistrispropane buffer, pH 6, pH 6.0, read-out: Solubility pH 6.0
[6] = bistrispropane buffer, pH 6.5, pH 6.5, read-out: Solubility pH 6.5
[7] = bistrispropane buffer, pH 7, pH 7.0, read-out: Solubility pH 7.0
[8] = bistrispropane buffer, pH 7.5, pH 7.5, read-out: Solubility pH 7.5
[9] = bistrispropane buffer, pH 8, pH 8.0, read-out: Solubility pH 8.0
[10] = glycylglycine buffer, pH 3, pH 3.0, read-out: Solubility pH 3.0
[11] = glycylglycine buffer, pH 4, pH 4.0, 18 hours at room temperature, Table 2, read-out: Solubility pH 4.0
[12] = glycylglycine buffer, pH 4, pH 4.0, read-out: Solubility pH 4.0
[13] = glycylglycine buffer, pH 5, pH 5.0, read-out: Solubility pH 5.0

Row | solubility at 18 h [1, 5] [µM] | solubility at 18 h [1, 6] [µM] | solubility at 18 h [1, 7] [µM] | solubility at 18 h [1, 8] [µM] | solubility at 18 h [1, 9] [µM] | solubility at 18 h [1, 10] [µM] | solubility at 18 h [1, 11] [µM] | solubility at 18 h [1, 12] [µM] | solubility at 18 h [1, 13] [µM] | ThT pH 4.0 lag time [2] [h] | ThT pH 4.0 lag time (h) [2] [h] | EC50 [3] [nM] | EC50 [4] [nM] | solubility at 18 h ([1]; bistrispropane buffer, pH 7, pH 7.0, 18 hours at room temperature, Table 3, read-out: Solubility pH 7.0) [µM] | SMILES
1 | > 200 | 166 (≈ 789 µg/mL) | 15 (≈ 71.3 µg/mL) | 24 (≈ 114 µg/mL) | 60 (≈ 285 µg/mL) | > 200 | > 200 | > 200 | > 200 | >45 | >45 | 0.0965 | 0.115 |  | CC[C@H](C)[C@H](NC(=O)[C@@H]1CCCN1C(=O)CNC(=O)[C@H](Cc1ccccc1)NC(=O)[C@H](CC(N)=O)NC(=O)[C@H](CC(N)=O)NC(=O)[C@H](CO)NC(=O)[C@H](CO)NC(=O)[C@H](Cc1c[nH]cn1)NC(=O)[C@H](Cc1c[nH]cn1)NC(=O)[C@H](CC(C)C)NC(=O)[C@H](Cc1ccccc1)NC(=O)[C@H](CCC(=O)O)NC(=O)[C@H](C)NC(=O)[C@H](CC(C)C)NC(=O)[C@H](CCCNC(=N)N)NC(=O)[C@H](CCC(N)=O)NC(=O)[C@@H](NC(=O)[C@H](C)NC(=O)[C@@H]1CSSC[C@H](NC(=O)[C@H](CCCCN)NC(=O)[C@H](Cc2c[nH]cn2)NC(=O)[C@H](Cc2c[nH]cn2)NC(=O)CC[C@H](NC(=O)CCCCCCCCCCCCCCCCCCC(=O)O)C(=O)O)C(=O)N[C@@H](CC(N)=O)C(=O)N[C@@H]([C@@H](C)O)C(=O)N[C@@H](C)C(=O)N[C@@H]([C@@H](C)O)C(=O)N1)[C@@H](C)O)C(=O)N[C@@H](CC(C)C)C(=O)N1CCC[C@H]1C(=O)N1CCC[C@H]1C(=O)N[C@H](C(=O)N[C@@H](CC(N)=O)C(=O)N[C@H](C(=O)NCC(=O)N[C@@H](CO)C(=O)N[C@@H](Cc1c[nH]cn1)C(=O)N[C@H](C(=O)N[C@@H](Cc1ccc(O)cc1)C(N)=O)[C@@H](C)O)C(C)C)[C@@H](C)O [Example 67, N-alpha-[(S)-4-Carboxy-4-(19-carboxynonadecanoylamino)butyryl]-His-His-[Glu14,His17,His35]-pramlintide] ({C20 diacid-γGlu}-HHKCNTATCATQRLAEFLHHSSNNFGPILPPTNVGSHTY-NH2; disulfide 4-9 (inferred); C-terminus assumed)
2 | 168 (≈ 768 µg/mL) | 87 (≈ 398 µg/mL) | 118 (≈ 540 µg/mL) | > 200 | > 200 | > 200 | > 200 | > 200 | > 200 |  | 6 | 0.059 | 0.258 | 118 (≈ 540 µg/mL) | CC[C@H](C)[C@H](NC(=O)[C@@H]1CCCN1C(=O)CNC(=O)[C@H](Cc1ccccc1)NC(=O)[C@H](CC(N)=O)NC(=O)[C@H](CC(N)=O)NC(=O)[C@H](CO)NC(=O)[C@H](CO)NC(=O)[C@H](Cc1c[nH]cn1)NC(=O)[C@H](Cc1c[nH]cn1)NC(=O)[C@H](CC(C)C)NC(=O)[C@H](Cc1ccccc1)NC(=O)[C@H](CCC(=O)O)NC(=O)[C@H](C)NC(=O)[C@H](CC(C)C)NC(=O)[C@H](CCCNC(=N)N)NC(=O)[C@H](CCC(N)=O)NC(=O)[C@@H](NC(=O)[C@H](C)NC(=O)[C@@H]1CSSC[C@H](NC(=O)[C@H](Cc2c[nH]cn2)NC(=O)[C@H](Cc2c[nH]cn2)NC(=O)CC[C@H](NC(=O)CCCCCCCCCCCCCCCCC(=O)O)C(=O)O)C(=O)N[C@@H](CC(N)=O)C(=O)N[C@@H]([C@@H](C)O)C(=O)N[C@@H](C)C(=O)N[C@@H]([C@@H](C)O)C(=O)N1)[C@@H](C)O)C(=O)N[C@@H](CC(C)C)C(=O)N1CCC[C@H]1C(=O)N1CCC[C@H]1C(=O)N[C@H](C(=O)N[C@@H](CC(N)=O)C(=O)N[C@H](C(=O)NCC(=O)N[C@@H](CO)C(=O)N[C@@H](CC(N)=O)C(=O)N[C@H](C(=O)N[C@@H](Cc1ccc(O)cc1)C(N)=O)[C@@H](C)O)C(C)C)[C@@H](C)O [Example 47, N-alpha-[(S)-4-Carboxy-4-(17-carboxyheptadecanoylamino)butyryl]-His-[His1,Glu14,His17]-pramlintide] ({C18 diacid-γGlu}-HHCNTATCATQRLAEFLHHSSNNFGPILPPTNVGSNTY-NH2; disulfide 3-8 (inferred); C-terminus assumed)
